In patent US20240262842A1, “SMALL MOLECULE INHIBITORS OF KRAS G12C MUTANT” (Merck Sharp & Dohme LLC, priority 2021, published 2024):

These compounds were tested against biotinylated KRAS G12C protein (GMP-PNP loaded) and GST-tagged Ras binding domain of c-RAF (Homo sapiens, UniProt P01116, C118S/C51S/C80L/G12C) (assay: RAS:RAF-RBD binding assay (TR-FRET)). Conditions: 30-minute incubation of compound with KRAS G12C before RAF-RBD; Table 4; read-out: IC50.
Chain of biotinylated KRAS G12C protein (GMP-PNP loaded) and GST-tagged Ras binding domain of c-RAF (P01116 with tags, fused parts or gaps isoform P01116-2 G12C/C51S/C80L/C118S): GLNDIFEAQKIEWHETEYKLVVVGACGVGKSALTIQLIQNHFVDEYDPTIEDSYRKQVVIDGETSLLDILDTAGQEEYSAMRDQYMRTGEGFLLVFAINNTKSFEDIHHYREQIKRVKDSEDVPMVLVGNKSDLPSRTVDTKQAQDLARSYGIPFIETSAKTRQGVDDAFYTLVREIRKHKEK

Row | SMILES | IC50 [nM]
1 | Cc1nc2c3c(c(C(F)(F)F)cc2n1C)-c1cccn2c(C(=O)c4cc(F)c(NC(=O)/C=C/CN5CC6C(CO)C6C5)c(F)c4)cc(c12)CCO3 (single isomer, unassigned) [Example 278, (E)-3-(4-((4-(9,10-dimeth-yl-7-(trifluoromethyl)-13,14-dihydro-9H-imidazo-[4″,5″:5′,6′]-benzo[1′,2′:2,3]oxocino-[4,5,6-hi]indolizine-2-carbonyl)-2,6-difluoro-phenyl)amino)-4-oxobut-2-en-1-yl)-6-(hydroxy-methyl)-3-azabicyclo-[3.1.0]hexan-3-ium 2,2,2-trifluoroacetate] | 44.3
2 | CC1Cc2cc(C(=O)c3cc(F)c(NC(=O)/C=C/CN[C@H]4CCOC4)c(F)c3)n3cccc(c23)-c2c(C(F)(F)F)cc3c(ncn3C)c2O1 (single isomer, unassigned) [Example 271] | 13.6
3 | Cc1nc2c3c(c(C(F)(F)F)cc2n1C)-c1cccn2c(C(=O)c4cc(F)c(NC(=O)/C=C/CNC5(C)COC5)c(F)c4)cc(c12)CC(C)O3 (single isomer, unassigned) [Example 273, mono((E)-2-(3,5-difluoro-4-(4-((3-methyloxetan-3-yl)ammonio)but-2-en-amido)benzoyl)-9,10,13-trimethyl-7-(trifluorometh-yl)-13,14-dihydro-9H-imidazo[4″,5″:5′,6′]benzo-[1′,2′:2,3]oxocino[4,5,6-hi]indolizin-11-ium) mono(2,2,2-trifluoro-acetate)] | 30.1
4 | Cc1nc2c3c(c(C(F)(F)F)cc2n1C)-c1cccn2c(C(=O)c4cc(F)c(NC(=O)/C=C/CN5CC6(CCCOC6)C5)c(F)c4)cc(c12)CCO3 [Example 253, mono((E)-2-(4-(4-(6-oxa-2-azaspiro[3.5]nonan-2-ium-2-yl)but-2-enamido)-3,5-difluorobenzoyl)-9,10-dimethyl-7-(trifluorometh-yl)-13,14-dihydro-9H-imidazo[4″,5″:5′,6′]benzo-[1′,2′:2,3]oxocino[4,5,6-hi]indolizin-11-ium) mono-(2,2,2-trifluoroacetate)] | 24.8
5 | Cc1nc2c3c(c(C(F)(F)F)cc2n1C)-c1cccn2c(C(=O)c4cc(F)c(NC(=O)/C(F)=C/CNCC5(CO)CC5)c(F)c4)cc(c12)CCO3 [Example 295, mono((Z)-2-(3,5-difluoro-4-(2-fluoro-4-(((1-(hydroxymethyl)cyclo-propyl)methyl)ammonio)-but-2-enamido)benzoyl)-9,10-dimethyl-7-(trifluoro-methyl)-13,14-dihydro-9H-imidazo[4″,5″:5′,6′]-benzo[1′,2′:2,3]oxocino-[4,5,6-hi]indolizin-11-ium) mono(2,2,2-trifluoro-acetate)] | 25.3
6 | Cc1nc2c3c(c(C(F)(F)F)cc2n1C)-c1cccn2c(C(=O)c4cc(F)c(NC(=O)C(F)=CCN5CCCC5CO)c(F)c4)cc(c12)CCO3 [Example 294, mono(2-(3,5-difluoro-4-((Z)-2-fluoro-4-(2S)-2-(hydroxymethyl)pyrrol-idin-1-ium-1-yl)but-2-enamido)benzoyl)-9,10-dimethyl-7-(trifluorometh-yl)-13,14-dihydro-9H-imidazo[4″,5″:5′,6′]benzo-[1′,2′:2,3]oxocino[4,5,6-hi]indolizin-11-ium) mono(2,2,2-trifluoro-acetate)] | 59.6
7 | Cc1nc2c3c(c(C(F)(F)F)cc2n1C)-c1cccn2c(C(=O)c4cc(F)c(NC(=O)/C=C/CNC5CCOC5)c(F)c4)cc(c12)CCO3 (single isomer, unassigned) [Example 270, (E)-N-(4-(9,10-dimethyl-7-(trifluoromethyl)-13,14-dihydro-9H-imidazo-[4″,5″:5′,6′]benzo[1′,2′: 2,3]oxocino[4,5,6-hi]-indolizine-2-carbonyl)-2,6-difluorophenyl)-4-((tetrahydrofuran-3-yl)-amino)but-2-enamide] | 12
8 | COCc1nc2c3c(c(OC)cc2n1C)-c1cccn2c(C(=O)c4cc(F)c(NC(=O)/C(F)=C/CNC5(C)CC5)c(F)c4)cc(c12)CCN3C [Example 286, (Z)-N-(2,6-difluoro-4-(7-methoxy-10-(methoxymethyl)-9,12-dimethyl-9,12,13,14-tetrahydroimidazo[4″,5″:5′,6′]benzo[1′,2′:2,3]azocino[4,5,6-hi]indolizine-2-carbonyl)phenyl)-2-fluoro-4-((1-methylcyclopropyl)amino)but-2-enamide] | 92.8
9 | COCc1nc2c3c(c(OC)cc2n1C)-c1cccn2c(C(=O)c4cc(F)c(NC(=O)/C=C/CNC5CC6(COC6)C5)c(F)c4)cc(c12)CCN3C [Example 291, (E)-4-((2-oxaspiro[3.3]-heptan-6-yl)amino)-N-(2,6-difluoro-4-(7-meth-oxy-10-(methoxymethyl)-9,12-dimethyl-9,12,13,14-tetrahydroimidazo[4″,5″: 5′,6′]benzo[1′,2′:2,3]-azocino[4,5,6-hi]indol-izine-2-carbonyl)phenyl) but-2-enamide] | 5.55
